Assay results as given in patent US10105357B2, “Indication of antibiotic drugs for preparation of cancer inhibition pharmaceutical composition” (LAUNX BIOMEDICAL CO., LTD., priority 2014, dated 2018).
Counter-ions that a name gives are not always drawn. Like-named read-outs stand apart in the source and are kept apart here.

Legend:
[1] = system: HL-60 (Acute Promyelocytic Leukemia); experiment: Cell viability analysis, leukemia HL-60; format: cell-based, human; conditions: Homo sapiens, HL-60, 72 h
[2] = system: cancer cell lines; experiment: Cell viability analysis (WST-1) on cancer cell lines; format: cell-based, human; conditions: drug 10 μM, 72 hours, WST-1; Table 3
[3] = system: HCT116 (p53+) (Colorectal Carcinoma); experiment: cells; conditions: Homo sapiens, HCT-116, 72 h, read-out: cell viability (survival rate), HCT116
[4] = drug 10 μM, 72 hours, WST-1, OD450 nm, read-out: cell viability (survival rate), HL-60
[5] = read-out: cell viability (survival rate), HL-60, drug 10 μM, 72 hours, WST-1, OD450 nm

SMILES | viability at 10 µM [1, 4] [%] | inhibition effect on different cancer cell lines [2] | viability at 10 µM [1, 5] [%] | viability at 10 µM [3] [%]
CC[C@@H]([C@H](C)O)n1ncn(-c2ccc(N3CCN(c4ccc(OC[C@@H]5CO[C@@](Cn6cncn6)(c6ccc(F)cc6F)C5)cc4)CC3)cc2)c1=O [Posaconazole] | 71.3 | significant inhibition effect | – | –
Cc1ncc([N+](=O)[O-])n1CCO [Metronidazole (Flagyl), Metronidazole] | – | significant inhibition effect | 90.8 | –
CN(C)[C@@H]1C(O)=C(C(N)=O)C(=O)[C@@]2(O)C(O)=C3C(=O)c4c(O)cccc4[C@@](C)(O)[C@H]3C[C@@H]12 [Tetracycline HCl] | – | significant inhibition effect | 93.7 | –
CN(C)[C@@H]1C(O)=C(C(N)=O)C(=O)[C@@]2(O)C(O)=C3C(=O)c4c(O)ccc(Cl)c4[C@@](C)(O)[C@H]3C[C@@H]12 [Chlortetracycline HCl] | – | significant inhibition effect | 83.9 | –
CN(C)CCC=C1c2ccccc2CCc2ccccc21 [Amitriptyline HCl] | 81.4 | significant inhibition effect | – | –
CC(NC(C)(C)C)C(=O)c1cccc(Cl)c1 (stereo not drawn) [Amfebutamone (Bupropion), Amfebutamone] | – | significant inhibition effect | 118 | –
CC(C)/N=c1\cc2n(-c3ccc(Cl)cc3)c3ccccc3nc-2cc1Nc1ccc(Cl)cc1 [Clofazimine] | 85 | significant inhibition effect | – | –
Cc1ccc2c(Cl)cc(Cl)c(O)c2n1 [Chlorquinaldol] | 64.8 | significant inhibition effect | – | –
CCCCCCCCCCCCCCCC[N+](C)(C)CCN(Cc1ccc(OC)cc1)c1ncccn1 [Thonzonium Bromide] | 35.2 | significant inhibition effect | – | 32.9
CC(C)(C)C(=O)OCOP(=O)(COCCn1cnc2c(N)ncnc21)OCOC(=O)C(C)(C)C [Adefovir Dipivoxil (Preveon, Hepsera), Adefovir Dipivoxil] | – | significant inhibition effect | 60.4 | –
COc1cc(NC(C)CCCN)c2ncccc2c1 (stereo not drawn) [Primaquine Diphosphate] | – | significant inhibition effect | 34.1 | 69.5
CCc1cc2c(cc1CC)CC(NC[C@H](O)c1ccc(O)c3[nH]c(=O)ccc13)C2 [Indacaterol Maleate] | 87.2 | significant inhibition effect | – | –
Clc1ccc(C(Cn2ccnc2)OCc2ccsc2Cl)c(Cl)c1 (stereo not drawn) [Tioconazole] | – | significant inhibition effect | 57.1 | –
COc1c(C)c2c(c(O)c1C/C=C(\C)CCC(=O)O)C(=O)OC2 [Mycophenolic (Mycophenolate), Mycophenolic] | 65.6 | – | – | –
NC(=O)N/N=C/c1ccc([N+](=O)[O-])o1 [Nitrofurazone (Nitrofural), Nitrofurazone] | 85.6 | significant inhibition effect | – | –
Clc1ccc(COC(Cn2ccnc2)c2ccc(Cl)cc2Cl)c(Cl)c1 (stereo not drawn) [Miconazole nitrate] | – | significant inhibition effect | 41.4 | –
CC(C)(C)CC(C)(C)c1ccc(O)c(Cc2ccc(Cl)cc2Cl)c1 [Clofoctol] | 83 | significant inhibition effect | – | 61
